Measurements taken from patent publication US10913742B2, “Oxadiazolones as transient receptor potential channel inhibitors” (Genentech, Inc., priority 2017, dated 2021).
pIC50: −log10 of the molar value. Read-outs that look alike come from different tables or passages of the source.

Tests used:
[1] = target: human TRPA1 (Homo sapiens (Human), UniProt O75762); experiment: hTRPA1 CHO Ca2+ FLIPR assay (block of cinnamaldehyde induced calcium influx); assay type: cell-based
How it was run: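 CHO cells expressing TRPA1 loaded with calcium dye (1 h at 37° C, then 15 min at room temperature) in HBSS/20 mM HEPES pH 7.4/0.02% BSA. Compounds preincubated 20 min at room temperature before cinnamaldehyde addition, with FLIPR Ca2+ readout. IC50 from Hill fit, n fixed at 1.5.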

[2] = Human liver microsome clearance (HLM-CLhep); assay type: in vitro ADME; conditions: 0.5 mg/ml protein, 1 mM NADPH, 1 μM compound, 37° C.
Experimental: (§1) Certain pharmacokinetic attributes were evaluated for some compounds of the present disclosure. […] The compounds of the present disclosure were discovered to provide for an unexpected combination of high potency as measured by hTRPA1 IC50 and high stability as measured by RLM-CLhep, HLM-CLhep and Rat IV PK.
(§2) The reactions were incubated at 37° C. for 0, 20, 40 and 60 minutes and at each allotted time point an aliquot of the reaction mixture was added to ice-cold acetonitrile with internal standard. The samples were subsequently centrifuged at 3000×g for 10 minutes and supernatant was diluted in water before LC-MS/MS analysis.

[3] = Rat liver microsome clearance (RLM-CLhep); assay type: in vitro ADME; conditions: 0.5 mg/ml protein, 1 mM NADPH, 1 μM compound, 37° C.
Experimental: as §1, §2

[4] = Rat IV PK (hepatic clearance); assay type: in vivo; conditions: rat IV dose of 1 mg/kg
Experimental: as §1

[5] = repeated from Table 1, read-out: hTRPA1 IC50
[6] = CHO cells expressing TRPA1, 75 uM cinnamaldehyde, Hill coefficient fixed to 1.5, read-out: hTRPA1 (hTRPA1 CHO Ca2+ MAX EVO (IC50))

Chain of human TRPA1 (O75762 whole entry): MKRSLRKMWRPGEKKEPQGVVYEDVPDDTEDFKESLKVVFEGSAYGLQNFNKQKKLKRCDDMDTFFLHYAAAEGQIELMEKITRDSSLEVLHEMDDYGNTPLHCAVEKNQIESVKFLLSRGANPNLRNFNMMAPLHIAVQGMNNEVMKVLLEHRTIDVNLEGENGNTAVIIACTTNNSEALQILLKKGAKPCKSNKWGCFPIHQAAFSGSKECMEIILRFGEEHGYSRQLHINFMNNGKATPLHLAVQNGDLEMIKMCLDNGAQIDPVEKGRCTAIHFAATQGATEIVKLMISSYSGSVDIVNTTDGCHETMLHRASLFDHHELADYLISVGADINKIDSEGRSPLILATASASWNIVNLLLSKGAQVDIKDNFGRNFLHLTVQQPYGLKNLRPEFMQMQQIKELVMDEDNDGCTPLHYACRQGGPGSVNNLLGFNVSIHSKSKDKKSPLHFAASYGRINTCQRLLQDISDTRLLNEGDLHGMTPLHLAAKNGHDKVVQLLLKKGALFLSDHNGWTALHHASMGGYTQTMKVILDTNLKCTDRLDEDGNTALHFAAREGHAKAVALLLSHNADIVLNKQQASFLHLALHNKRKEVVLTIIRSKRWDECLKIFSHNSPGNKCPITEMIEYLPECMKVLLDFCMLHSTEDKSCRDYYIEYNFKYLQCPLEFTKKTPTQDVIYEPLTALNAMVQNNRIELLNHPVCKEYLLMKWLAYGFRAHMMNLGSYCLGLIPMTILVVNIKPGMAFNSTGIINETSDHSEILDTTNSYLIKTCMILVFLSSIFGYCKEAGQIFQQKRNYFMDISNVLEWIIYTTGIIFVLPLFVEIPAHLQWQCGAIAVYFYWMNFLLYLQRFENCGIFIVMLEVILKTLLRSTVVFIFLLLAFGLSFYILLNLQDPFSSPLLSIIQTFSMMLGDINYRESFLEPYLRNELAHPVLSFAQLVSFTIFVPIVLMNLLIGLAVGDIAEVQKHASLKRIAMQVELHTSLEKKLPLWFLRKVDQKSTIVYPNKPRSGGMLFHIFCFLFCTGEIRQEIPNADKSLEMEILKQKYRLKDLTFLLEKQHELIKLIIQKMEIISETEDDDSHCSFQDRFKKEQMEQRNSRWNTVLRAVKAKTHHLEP

For `Cn1cnc2ncn(Cc3nn(CCc4ccc(Cl)cc4)c(=O)o3)c(=O)c21` [Example Compound 1, 3-[2-(4-chlorophenyl)ethyl]-5-[(7-methyl-6-oxo-purin-1-yl)methyl]-1,3,4-oxadiazol-2-one], the pIC50 [1, 5] was 7.02, the “HLM-CLhep (human liver microsome clearance)” value (from here on “HLM-CLhep”) [2] was 11 mL/min/kg and the “RLM-CLhep (rat liver microsome clearance)” value (from here on “RLM-CLhep”) [3] was 34 mL/min/kg. The “Rat IV PK (hepatic clearance)” value [4] was 48 mL/min/kg.
For `Cn1cnc2ncn(Cc3nn([C@H]4C[C@H](c5ccc(Cl)cc5)C4)c(=O)o3)c(=O)c21` [Example Compound 50, 3-[3-(4-chlorophenyl)cyclobutyl]-5-[(7-methyl-6-oxo-purin-1-yl)methyl]-1,3,4-oxadiazol-2-one], the “HLM-CLhep” value [2] was 5 mL/min/kg, the “RLM-CLhep” value [3] was 12 mL/min/kg and the “Rat IV PK (hepatic clearance)” value [4] was 10 mL/min/kg.
For `Cn1cnc2ncn(Cc3nn(C[C@@H](F)c4ccc(Cl)cc4)c(=O)o3)c(=O)c21` [Example Compound 14, (S)-3-(2-(4-chlorophenyl)-2-fluoroethyl)-5-((7-methyl-6-oxo-6H-purin-1 (7H)-yl)methyl)-1,3,4-oxadiazol-2(3H)-one], the pIC50 [1, 5] was 7.47, the “HLM-CLhep” value [2] was 6 mL/min/kg and the “RLM-CLhep” value [3] was 28 mL/min/kg. The “Rat IV PK (hepatic clearance)” value [4] was 17 mL/min/kg.
A pIC50 [1, 6] of 8.20 was found for `Cc1ccnc2ncn(Cc3nn([C@H]4C[C@H](c5ccc(Cl)cc5)C4)c(=O)o3)c(=O)c12` [compound 107, 3-[3-(4-chlorophenyl)cyclobutyl]-5-[(5-methyl-4-oxo-pyrido[2,3-d]pyrimidin-3-yl)methyl]-1,3,4-oxadiazol-2-one] in this work.
A pIC50 [1, 6] of 7.47 was found for `Cn1cnc2ncn(Cc3nn(C[C@H](F)c4ccc(Cl)cc4)c(=O)o3)c(=O)c21` [compound 14, (R)-3-(2-(4-chlorophenyl)-2-fluoroethyl)-5-((7-methyl-6-oxo-6H-purin-1(7H)-yl)methyl)-1,3,4-oxadiazol-2(3H)-one] in this work.
A pIC50 [1, 6] of 7.74 was found for `Cc1cnc(Cl)c2ncn(Cc3nn(CCc4ccc(Cl)cc4)c(=O)o3)c(=O)c12` [compound 40, 5-((8-chloro-5-methyl-4-oxopyrido[3,4-d]pyrimidin-3(4H)-yl)methyl)-3-(4-chlorophenethyl)-1,3,4-oxadiazol-2(3H)-one] in this work.
A pIC50 [1, 6] of 7.74 was found for `Cc1cnc(C#N)c2ncn(Cc3nn(CCc4ccc(Cl)cc4)c(=O)o3)c(=O)c12` [compound 43] in this work.
A pIC50 [1, 6] of 8.23 was found for `O=c1c2c(Cl)ccnc2ncn1Cc1nn([C@H]2C[C@H](c3ccc(Cl)cc3)C2)c(=O)o1` [compound 73, 5-[(5-chloro-4-oxo-pyrido[2,3-d]pyrimidin-3-yl)methyl]-3-[3-(4-chlorophenyl)cyclobutyl]-1,3,4-oxadiazol-2-one] in this work.
A pIC50 [1, 6] of 7.36 was found for `Cn1cnc2ncn(Cc3nn(CCc4ccc(Br)cc4)c(=O)o3)c(=O)c21` [compound 3, 3-(4-bromophenethyl)-5-((7-methyl-6-oxo-6H-purin-1(7H)-yl)methyl)-1,3,4-oxadiazol-2(3H)-one] in this work.
A pIC50 [1, 6] of 6.81 was found for `Cn1cnc2ncn(Cc3nn([C@H]4CC[C@H](c5ccccc5)C4)c(=O)o3)c(=O)c21` (racemic) [compound 108, 5-[(7-methyl-6-oxo-purin-1-yl)methyl]-3-[rac-(1S,3S)-3-phenylcyclopentyl]-1,3,4-oxadiazol-2-one] in this work.
A pIC50 [1, 6] of 6.60 was found for `Cn1cnc2ncn(Cc3nn(CCc4ccc(-c5ccccc5)cc4)c(=O)o3)c(=O)c21` [compound 55, 5-[(7-methyl-6-oxo-purin-1-yl)methyl]-3-[2-(4-phenylphenyl)ethyl]-1,3,4-oxadiazol-2-one] in this work.
A pIC50 [1, 6] of 8.08 was found for `Cn1cnc2ncn(Cc3nn([C@@H]4CC[C@@H](c5ccc(F)cc5)C4)c(=O)o3)c(=O)c21` [compound 92, 5-[(7-methyl-6-oxo-purin-1-yl)methyl]-3-[(1R,3R)-3-(4-fluorophenyl)cyclopentyl]-1,3,4-oxadiazol-2-one] in this work.
A pIC50 [1, 6] of 7.19 was found for `Cn1cnc2ncn(Cc3nn([C@H]4C[C@H](c5ccc(F)cc5)C4)c(=O)o3)c(=O)c21` [compound 112, 3-[3-(4-fluorophenyl)cyclobutyl]-5-[(7-methyl-6-oxo-purin-1-yl)methyl]-1,3,4-oxadiazol-2-one] in this work.
